Values joined by “and” are separate entries in the source; they are usually repeats but may differ in a detail not shown here. Identical values can stand only once. Counter-ions that a name gives are not always drawn. Like-named read-outs stand apart in the source and are kept apart here.
Tests used:
[1] = test system: [3H]-ADMA transport across the blood-brain and blood-CSF barriers; assay: self-inhibition, in situ perfusion: [^3H]-ADMA with 100 μM unlabelled ADMA; format: in vivo, mouse; settings: male, Balb/c, mouse, other: in situ brain perfusion, with unlabelled ADMA 100 µM, 10 mins, Balb/c ♂, 5ml/min
Protocol: Self-inhibition experiments were also performed. […] Cross-competition experiments were also performed.
The percentage change in the RTissue uptake values achieved in the absence or presence of an unlabelled inhibitor can be calculated by means of Eq 4.
%change=RTissue−RInhibition/RTissue×100 Eq 4
We define RInhibition as the RTissue uptake in the presence of an inhibitor in the artificial plasma.
A decrease in the uptake of radiolabelled solute in the presence of unlabelled inhibitor is indicative of a saturable influx transport system. Conversely, an increase in the uptake of radiolabelled solute in the presence of unlabelled inhibitor is indicative of a saturable efflux transport system.

[2] = capillary depletion analysis after in situ brain perfusion; format: in vivo, mouse; design: [3H] ADMA and [14C] Sucrose uptake, homogenate / Difference (ADMA minus Sucrose), homogenate / [3H] ADMA and [14C] Sucrose uptake, supernatant / Difference (ADMA minus Sucrose), supernatant / uptake, homogenate / uptake, supernatant: unit not given here; settings: 5ml/min; for Kp at 20 min, 62.5 nM / Kp at […] / Kp at 30 min, 62.5 nM / Kp at 10 min, 62.5 nM: male, BALB/c, mouse; for Kp at 30 min, 62.5 nM / Kp at 10 min, 62.5 nM: other: in situ brain perfusion
Protocol: The microvasculature within a sample of brain tissue can be separated from the brain parenchyma using capillary depletion analysis. Following perfusion, the remaining brain tissue after microdissection of the regions described above (typically 200–300 mg) underwent capillary depletion following a method modified for mouse. […]

[3] = 2.5 mins, Balb/c ♂, individual mouse
[4] = 20 mins, Balb/c ♂, individual mouse
[5] = 30 mins, Balb/c ♂, individual mice
[6] = CONTROL, 10 mins, Balb/c ♂, individual mouse
[7] = [3H] ADMA + [14C] Sucrose, 30 mins, Balb/c ♂, individual mice

Question: Which Kp at 10 min, 62.5 nM ([1]; CSF, Difference (ADMA minus Sucrose), CSF, + 100uM un-labelled ADMA, mean) does the source give for `CN(C)C(N)=NCCC[C@H](N)C(=O)O` [ADMA, N^G,N^G-dimethylarginine dihydrochloride] here?
Answer: 2.01

Question: And the Kp at 10 min, 62.5 nM ([1]; CSF, [3H] ADMA + [14C] Sucrose + 100uM un-labelled ADMA, mean, read-out: uptake into CSF)?
Answer: 2.15

Question: And the Kp at 10 min, 62.5 nM ([1]; cerebellum, Difference (ADMA minus Sucrose), cerebellum, + 100uM un-labelled ADMA, individual mice)?
Answer: 0.0515

Question: What about the Kp at 10 min, 62.5 nM ([1]; cerebellum, Difference (ADMA minus Sucrose), cerebellum, + 100uM un-labelled ADMA, mean) of the same molecule?
Answer: 0.0701

Question: What about the Kp at 10 min, 62.5 nM ([1]; cerebellum, [3H] ADMA + [14C] Sucrose + 100uM un-labelled ADMA, individual mice, read-out: uptake into cerebellum) of the same molecule?
Answer: 0.09

Question: And the Kp at 10 min, 62.5 nM ([1]; cerebellum, [3H] ADMA + [14C] Sucrose + 100uM un-labelled ADMA, mean, read-out: uptake into cerebellum)?
Answer: 0.121

Question: And the Kp at 10 min, 62.5 nM ([1]; homogenate, Difference (ADMA minus Sucrose), homogenate, + 100uM un-labelled ADMA, mean)?
Answer: 0.0396

Question: What about the Kp at 10 min, 62.5 nM ([1]; homogenate, [3H] ADMA + [14C] Sucrose + 100uM un-labelled ADMA, individual mice, read-out: uptake, homogenate) of the same molecule?
Answer: 0.0686

Question: What about the Kp at 10 min, 62.5 nM ([1]; homogenate, [3H] ADMA + [14C] Sucrose + 100uM un-labelled ADMA, mean, read-out: uptake, homogenate) of the same molecule?
Answer: 0.0884

Question: What about the Kp at 10 min, 62.5 nM ([1]; hypothalamus, Difference (ADMA minus Sucrose), hypothalamus, + 100uM un-labelled ADMA, mean) of the same molecule?
Answer: 0.0972

Question: And the Kp at 10 min, 62.5 nM ([1]; hypothalamus, [3H] ADMA + [14C] Sucrose + 100uM un-labelled ADMA, mean, read-out: uptake into hypothalamus)?
Answer: 0.146

Question: And the Kp at 10 min, 62.5 nM ([1]; pellet, Difference (ADMA minus Sucrose), pellet, + 100uM un-labelled ADMA, individual mice)?
Answer: 0.01

Question: And the Kp at 10 min, 62.5 nM ([1]; pellet, [3H] ADMA + [14C] Sucrose + 100uM un-labelled ADMA, individual mice, read-out: uptake, pellet)?
Answer: 0.0144

Question: And the Kp at 10 min, 62.5 nM ([1]; pellet, [3H] ADMA + [14C] Sucrose + 100uM un-labelled ADMA, mean, read-out: uptake, pellet)?
Answer: 0.0179

Question: What about the Kp at 10 min, 62.5 nM ([1]; pituitary gland, Difference (ADMA minus Sucrose), pituitary gland, + 100uM un-labelled ADMA, mean) of the same molecule?
Answer: 0.586

Question: What about the Kp at 10 min, 62.5 nM ([1]; pituitary gland, [3H] ADMA + [14C] Sucrose + 100uM un-labelled ADMA, mean, read-out: uptake into pituitary gland) of the same molecule?
Answer: 0.681

Question: What about the Kp at 10 min, 62.5 nM ([1]; pons, Difference (ADMA minus Sucrose), pons, + 100uM un-labelled ADMA, mean) of the same molecule?
Answer: 0.0724

Question: What about the Kp at 10 min, 62.5 nM ([1]; pons, [3H] ADMA + [14C] Sucrose + 100uM un-labelled ADMA, individual mice, read-out: uptake into pons) of the same molecule?
Answer: 0.102

Question: What about the Kp at 10 min, 62.5 nM ([1]; pons, [3H] ADMA + [14C] Sucrose + 100uM un-labelled ADMA, mean, read-out: uptake into pons) of the same molecule?
Answer: 0.127

Question: What about the Kp at 10 min, 62.5 nM ([1]; supernatant, Difference (ADMA minus Sucrose), supernatant, + 100uM un-labelled ADMA, mean) of the same molecule?
Answer: 0.0316

Question: What about the Kp at 10 min, 62.5 nM ([1]; supernatant, [3H] ADMA + [14C] Sucrose + 100uM un-labelled ADMA, individual mice, read-out: uptake, supernatant) of the same molecule?
Answer: 0.047

Question: What about the Kp at 10 min, 62.5 nM ([1]; supernatant, [3H] ADMA + [14C] Sucrose + 100uM un-labelled ADMA, mean, read-out: uptake, supernatant) of the same molecule?
Answer: 0.0703

Question: What about the Kp at 10 min, 62.5 nM ([1]; thalamus, Difference (ADMA minus Sucrose), thalamus, + 100uM un-labelled ADMA, mean) of the same molecule?
Answer: 0.0727

Question: What about the Kp at 10 min, 62.5 nM ([1]; thalamus, [3H] ADMA + [14C] Sucrose + 100uM un-labelled ADMA, individual mice, read-out: uptake into thalamus) of the same molecule?
Answer: 0.077

Question: What about the Kp at 10 min, 62.5 nM ([1]; thalamus, [3H] ADMA + [14C] Sucrose + 100uM un-labelled ADMA, mean, read-out: uptake into thalamus) of the same molecule?
Answer: 0.117

Question: What about the “Difference (ADMA minus Sucrose), homogenate” value [2, 3] of the same molecule?
Answer: 0.08009 and 0.1215 and 0.06334 and 0.05481 and 0.07702

Question: And the “Difference (ADMA minus Sucrose), pellet” value [2, 3]?
Answer: 0.01248 and 0.007546 and 0.01055 and 0.0124

Question: What about the “Difference (ADMA minus Sucrose), supernatant” value [2, 3] of the same molecule?
Answer: 0.05051 and 0.03514 and 0.04142 and 0.05329

Question: And the “[3H] ADMA and [14C] Sucrose uptake, homogenate” value [2, 3]?
Answer: 0.09289 and 0.1482 and 0.07368 and 0.06461 and 0.09146

Question: What about the “[3H] ADMA and [14C] Sucrose uptake, pellet” value [2, 3] of the same molecule?
Answer: 0.01492 and 0.009191 and 0.01385 and 0.01522

Question: What about the “[3H] ADMA and [14C] Sucrose uptake, supernatant” value [2, 3] of the same molecule?
Answer: 0.06123 and 0.0402 and 0.05083 and 0.0645

Question: What about the “Difference (ADMA minus Sucrose), homogenate” value [2, 4] of the same molecule?
Answer: 0.2153 and 0.186 and 0.3039 and 0.2292 and 0.1075

Question: What about the “Difference (ADMA minus Sucrose), pellet” value [2, 4] of the same molecule?
Answer: 0.01581 and 0.02784 and 0.03159 and 0.04237 and 0.006518

Question: What about the “Difference (ADMA minus Sucrose), supernatant” value [2, 4] of the same molecule?
Answer: 0.1074 and 0.1722 and 0.2036 and 0.1573 and 0.05863

Question: What about the “[3H] ADMA and [14C] Sucrose uptake, homogenate” value [2, 4] of the same molecule?
Answer: 0.2383 and 0.2004 and 0.3388 and 0.2498 and 0.142

Question: What about the “[3H] ADMA and [14C] Sucrose uptake, pellet” value [2, 4] of the same molecule?
Answer: 0.01706 and 0.03 and 0.03434 and 0.04519 and 0.01122

Question: And the “[3H] ADMA and [14C] Sucrose uptake, supernatant” value [2, 4]?
Answer: 0.1162 and 0.1882 and 0.2293 and 0.1698 and 0.07807

Question: And the “Difference (ADMA minus Sucrose), homogenate” value [2, 5]?
Answer: 0.07039 and 0.3122 and 0.07479 and 0.04539 and 0.1073

Question: What about the “Difference (ADMA minus Sucrose), pellet” value [2, 5] of the same molecule?
Answer: 0.01163 and 0.01136 and 0.007805 and 0.01411

Question: And the “Difference (ADMA minus Sucrose), supernatant” value [2, 5]?
Answer: 0.1199 and 0.1088 and 0.02622 and 0.04075 and 0.06521

Question: And the “Difference (ADMA minus Sucrose), homogenate” value [2, 6]?
Answer: 0.2688 and 0.161 and 0.1425 and -0.07309

Question: What about the “Difference (ADMA minus Sucrose), pellet” value [2, 6] of the same molecule?
Answer: 0.02507 and 0.05085 and 0.009734 and 0.01917 and -0.0657

Question: What about the “Difference (ADMA minus Sucrose), supernatant” value [2, 6] of the same molecule?
Answer: 0.07602 and 0.1167 and 0.08919 and 0.1193 and 0.02984

Question: And the “[3H] ADMA and [14C] Sucrose uptake, homogenate” value [2, 6]?
Answer: 0.1657 and 0.3684 and 0.1901 and 0.1639 and 0.2325

Question: What about the “[3H] ADMA and [14C] Sucrose uptake, pellet” value [2, 6] of the same molecule?
Answer: 0.02884 and 0.07512 and 0.03345 and 0.03555 and 0.0904

Question: And the “[3H] ADMA and [14C] Sucrose uptake, supernatant” value [2, 6]?
Answer: 0.1611 and 0.1028 and 0.139 and 0.1685

Question: What about the “uptake, homogenate” value [2, 7] of the same molecule?
Answer: 0.08533 and 0.3484 and 0.1186 and 0.07545 and 0.1502

Question: And the “uptake, pellet” value [2, 7]?
Answer: 0.01575 and 0.016 and 0.01288 and 0.01992

Question: What about the “uptake, supernatant” value [2, 7] of the same molecule?
Answer: 0.135 and 0.1332 and 0.05406 and 0.0758 and 0.09832

Question: And the Kp at 20 min, 62.5 nM ([2]; capillary depletion pellet (endothelial cell-enriched), Difference (ADMA minus Sucrose), pellet, 20 mins, mean)?
Answer: 0.0248

Question: And the Kp at 20 min, 62.5 nM ([2]; capillary depletion pellet (endothelial cell-enriched), [3H] ADMA and [14C] Sucrose uptake, pellet, 20 mins, mean)?
Answer: 0.0276

Question: What about the Kp at […] ([2]; capillary depletion supernatant (brain parenchyma), Difference (ADMA minus Sucrose), supernatant, 2.5 mins, individual mouse) of the same molecule?
Answer: 0.0611

Question: And the Kp at […] ([2]; capillary depletion supernatant (brain parenchyma), Difference (ADMA minus Sucrose), supernatant, 2.5 mins, mean)?
Answer: 0.0483

Question: And the Kp at 20 min, 62.5 nM ([2]; capillary depletion supernatant (brain parenchyma), Difference (ADMA minus Sucrose), supernatant, 20 mins, mean)?
Answer: 0.14

Question: What about the Kp at […] ([2]; capillary depletion supernatant (brain parenchyma), [3H] ADMA and [14C] Sucrose uptake, supernatant, 2.5 mins, individual mouse) of the same molecule?
Answer: 0.0737

Question: What about the Kp at […] ([2]; capillary depletion supernatant (brain parenchyma), [3H] ADMA and [14C] Sucrose uptake, supernatant, 2.5 mins, mean) of the same molecule?
Answer: 0.0581

Question: And the Kp at 20 min, 62.5 nM ([2]; capillary depletion supernatant (brain parenchyma), [3H] ADMA and [14C] Sucrose uptake, supernatant, 20 mins, mean)?
Answer: 0.156

Question: And the Kp at 30 min, 62.5 nM ([2]; capillary depletion supernatant (brain parenchyma), Difference (ADMA minus Sucrose), supernatant, 30 mins, Balb/c ♂, mean)?
Answer: 0.0722

Question: What about the Kp at 10 min, 62.5 nM ([2]; capillary depletion supernatant (brain parenchyma), Difference (ADMA minus Sucrose), supernatant, CONTROL, 10 mins, Balb/c ♂, mean) of the same molecule?
Answer: 0.0862

Question: And the Kp at 30 min, 62.5 nM ([2]; capillary depletion supernatant (brain parenchyma), [3H] ADMA + [14C] Sucrose, 30 mins, Balb/c ♂, mean, read-out: uptake, supernatant)?
Answer: 0.0993

Question: And the Kp at 10 min, 62.5 nM ([2]; capillary depletion supernatant (brain parenchyma), [3H] ADMA and [14C] Sucrose uptake, supernatant, CONTROL, 10 mins, Balb/c ♂, individual mouse)?
Answer: 0.119

Question: And the Kp at 10 min, 62.5 nM ([2]; capillary depletion supernatant (brain parenchyma), [3H] ADMA and [14C] Sucrose uptake, supernatant, CONTROL, 10 mins, Balb/c ♂, mean)?
Answer: 0.138
